Assay results taken from patent publication US4053604A (priority 1975, dated 1977).
Entries after “also recorded” stand apart in the source; their conditions may differ.

Columns and labels:
[1] = tail-flick test, potentiation of the analgesic activity of phenoperidine; assay type: in vivo, albino mice
Text: (§1) In the following experiments, phenoperidine and Compound I are used in the form of their hydrochloride salt and droperidol in the form of its free base in the presence of lactic acid for adjustment to pH to 3.4. Results are expressed on the basis of the form of the drug employed (i.e., free base or hydrochloride salt).
(§2) Results of such tests using albino mice are illustrated by tables 1,2 and 3 in which the neuroleptic agent, droperidol, is included for comparative purposes.
Potentiation of the Analgesic Activity (ED50) of Phenoperidine,
i.e. 0.5 mg/kg, by varying Doses of Neuroleptic Agents.
*PD50 refers to the dose of the neuroleptic which increased the
analgesic activity (ED50) of phenoperidine by 50%.
Modified Analgesic Activity of Phenoperidine in
the Presence of the Neuroleptic PD50. -
*ED50 refers to the analgesic activity of phenoperidine after
pretreatment with a fixed dose (PD50) of the neuroleptic agents.

[2] = tail-flick test, analgesic activity of the agent alone; assay type: in vivo, albino mice
Text: as §1, §2
*The dose which increased analgesia by 50% when tested 15 minutes after […]

[3] = onset, duration of activity and cardiovascular effect (general statement); assay type: in vivo
[4] = induction time of rats exposed to halothane anesthesia (loss of righting reflex); assay type: in vivo, male albino rats (Sprague-Dawley)
Protocol: The effects of Compound I on halothane-induced anesthesia were assessed using 20 rats for each dose or time interval determination. The experiments were performed on male albino rats (Sprague-Dawley) weighing from 180-220 g. A schematic representation of the apparatus used is illustrated in FIG. 1. The apparatus consists of a rectangular box made of transparent plastic (115 cm long × 28 cm high × 28 cm wide) which is divided into 4 equal chambers by perforated walls. The box rotates around a hollow axis through which gases can be delivered at several proportions from cylinders, through their respective flowmeters. An in-line halothane vaporizer is placed just before the gases reach the chambers. There is an air-tight door to every chamber through which two animals, one treated and one control, are introduced. The gases are delivered at one end of the box and suction is applied to the other end to take up the gases after flowing through the chambers. An in-line water manometer monitors the resulting pressure. This pressure is kept at 0-5 mm H2 O to make certain the gases in the anesthetic chambers remain at atmospheric pressure. The mixture of gases is delivered at a rate of 15 l/min. The inhalation anesthetic gases are delivered for ten minutes prior to the introduction of the animals into the chambers to assure an even distribution in the four chambers. The chambers rotate at four rev/min forcing the animals to tumble and allowing the experimenter to accurately time the loss and recovery of the righting reflex. Induction times are recorded as the time interval elapsed between the beginning of exposure of the animals to the gases and the moment in which they lose their righting reflex.
Groups of control animals (four at a time) were subjected to halothane concentrations ranging from 0.5 to 2.5% in a mixture of 95% O2 -5% CO2, and the induction times thus obtained were used to calculate concentration-reponse curves. Since a certain time elapsed between putting the first and the last rat into their respective chambers, each animal was timed separately with a stopwatch. […] This intermediate concentration of halothane was then used to study the effects of increasing doses of the test compound on the induction times and anesthesia times.
The animals were pretreated by administering the test compounds in dosages ranging from 10 to 500 μg/kg, i.v., at 5, 30, 60, 120, 240 and 360 minutes prior to their exposure to halothane. As soon as all animals lost their righting reflex, the O2 -halothane flow was discontinued and replaced by an equal flow of air. The animals were allowed to remain in the rotating chambers until they regained their righting reflex. Anesthesia times were determined as the interval between the time required to lose and the time to regain the righting reflex. Air flushing of the anesthetic chambers was performed after each determination and the entire procedure repeated with another group of animals for the determination of the effect of a new dose or concentration.
Drugs used in this study include: droperidol, phenoperidine hydrochloride, halothane and Compound I in the form of its hydrochloride salt. Phenoperidine hydrochloride and Compound I (hydrochloride) were dissolved separately in a warm solution of 0.9% sodium chloride. Droperidol was suspended in saline with the aid of a drop ot Tween 80 (Tween 80 is a registered trademark for a complex mixture of polyoxyethylene ethers of mixed partial oleic esters of sorbitol anhydride). Dosages are expressed in this study as the salt form of the compound where applicable. When the experimental protocol called for the concomitant administration of two drugs, these were mixed in the syringe and administered intravenously. The drugs were injected in a volume of 0.1 ml/100 g body weight.
The statistical analysis of the data was performed using Student's […]. […]

[5] = respiratory minute volume and mean arterial blood pressure in rats; assay type: in vivo; settings: with phenoperidine, intravenously, doses substantially greater than required for NLA; in words
[6] = as above; assay type: in vivo
Protocol: These effects are less than those encountered with neuroleptics presently available for NLA as evidenced by laboratory experiments in rats in which these cardiovascular parameters are measured before and after the administration of Compound 1 and the neuroleptic agent droperidol, see Table 8.
The Effect of Compound 1 and Droperidol on Respiratory Minute Volume
and Mean Arterial Blood Pressure

## CC(C)[C@@]1(O)CCN2C[C@@H]3c4ccccc4CCc4cccc(c43)[C@H]2C1 [Compound 1, (+)(4a,13b-trans)-(3-hydroxy,13b-trans)-3-isopropyl-2,- 3,4,4a,8,9,13b,14-octahydro-lH-benzo[6,7]cyclohepta[1,2,3-de]pyrido[2,1-a]isoquinolin-3-ol]
[1]; in words
  relative potentiating activity, Compound I versus droperidol: equiactive
[1]; in words, listed as Compound I
  enhancement of analgesic activity of phenoperidine by concomitant administration: well defined potentiating effect on analgesic agents; also recorded: significantly enhanced
[1]; mouse, in vivo, ip
  PD50 of Neuroleptic Agent (dose which increased the analgesic activity (ED50) of phenoperidine by 50%): 0.56 ± 0.06 mg/kg
[2]; Mus musculus, ip, 0.25 h, i.p., dose which increased analgesia by 50% when tested 15 minutes after drug administration
  ED50: > 35 mg/kg
[2]; in words, listed as Compound I
  analgesic activity when given alone: only a negligible amount of analgesic activity; also recorded: no analgesic activity could be demonstrated
[3]; alone or in combination with a suitable analgesic agent, in words
  effect on the cardiovascular system: little or no effect on the cardiovascular system
[3]; in words
  onset of action: quick onset of action
[3]; relatively short duration
  duration of activity: up to four
[4]; 10 μg/kg i.v., 5 min before 0.75% halothane
  Induction time, treated: 6.66 min
[4]; 10 μg/kg i.v., 5 min before 1.0% halothane
  Induction time, treated: 2.67 min
[4]; 10 μg/kg i.v., 5 min before 1.5% halothane
  Induction time, treated: 1.32 min
[4]; 10 μg/kg i.v., 5 min before 2.0% halothane
  Induction time, treated: 0.72 min
[4]; 10 μg/kg i.v., 5 min before 2.5% halothane
  Induction time, treated: 0.57 min
[4]; 25 μg/kg i.v., 5 min before 0.75% halothane
  Induction time, treated: 6.30 min
[4]; 25 μg/kg i.v., 5 min before 1.0% halothane
  Induction time, treated: 1.86 min
[4]; 25 μg/kg i.v., 5 min before 1.5% halothane
  Induction time, treated: 1.02 min
[4]; 25 μg/kg i.v., 5 min before 2.0% halothane
  Induction time, treated: 0.71 min
[4]; 25 μg/kg i.v., 5 min before 2.5% halothane
  Induction time, treated: 0.58 min
[4]; 50 μg/kg i.v., 5 min before 0.75% halothane
  Induction time, treated: 5.77 min
[4]; 50 μg/kg i.v., 5 min before 1.0% halothane
  Induction time, treated: 1.62 min
[4]; 50 μg/kg i.v., 5 min before 1.5% halothane
  Induction time, treated: 1.03 min
[4]; 50 μg/kg i.v., 5 min before 2.0% halothane
  Induction time, treated: 0.75 min
[4]; 50 μg/kg i.v., 5 min before 2.5% halothane
  Induction time, treated: 0.57 min
[4]; 100 μg/kg i.v., 5 min before 0.75% halothane
  Induction time, treated: 4.05 min
[4]; 100 μg/kg i.v., 5 min before 1.0% halothane
  Induction time, treated: 1.37 min
[4]; 100 μg/kg i.v., 5 min before 1.5% halothane
  Induction time, treated: 1.13 min
[4]; 100 μg/kg i.v., 5 min before 2.0% halothane
  Induction time, treated: 0.69 min
[4]; 100 μg/kg i.v., 5 min before 2.5% halothane
  Induction time, treated: 0.54 min
[4]; 200 μg/kg i.v., 5 min before 0.75% halothane
  Induction time, treated: 3.48 min
[4]; 200 μg/kg i.v., 5 min before 1.0% halothane
  Induction time, treated: 1.31 min
[4]; 200 μg/kg i.v., 5 min before 1.5% halothane
  Induction time, treated: 1.03 min
[4]; 200 μg/kg i.v., 5 min before 2.0% halothane
  Induction time, treated: 0.64 min
[4]; 200 μg/kg i.v., 5 min before 2.5% halothane
  Induction time, treated: 0.57 min
[4]; 200 μg/kg, i.v., 1% halothane
  reduction of induction time: approximately 50%
[4]; 250 μg/kg i.v., 5 min before 0.75% halothane
  Induction time, treated: 3.72 min
[4]; 250 μg/kg i.v., 5 min before 1.0% halothane
  Induction time, treated: 1.67 min
[4]; 250 μg/kg i.v., 5 min before 1.5% halothane
  Induction time, treated: 0.91 min
[4]; 250 μg/kg i.v., 5 min before 2.0% halothane
  Induction time, treated: 0.67 min
[4]; 250 μg/kg i.v., 5 min before 2.5% halothane
  Induction time, treated: 0.60 min
[4]; Compound 1 (hydrochloride) alone, i.v., 5 min before 1% halothane (FIG. 2)
  maximum decrease in induction time: 45%
[4]; administered prior to anesthetic treatment, in words, listed as Compound I
  effect on induction time for the anesthetic: decreased considerably; also recorded: substantially reduced
[4]; plus 25 μg/kg, i.v., phenoperidine hydrochloride, 1% halothane (FIG. 2)
  decrease in induction time, with phenoperidine: about 65%
[5]
  effect on respiratory depression caused by analgesic agents: only slightly changed
[6]; 25 μg/kg
  Change in Mean B.P. as % of Control: -0.83 ± 0.83 % of Control
  Change in Minute Volume as % of Control: +4.2 ± 1.4 % of Control
[6]; 100 μg/kg
  Change in Mean B.P. as % of Control: -4.1 ± 2.6 % of Control
  Change in Minute Volume as % of Control: +6.8 ± 1.9 % of Control
[6]; 250 μg/kg
  Change in Mean B.P. as % of Control: -8.9 ± 1.6 % of Control
  Change in Minute Volume as % of Control: +6.6 ± 2.7 % of Control
[6]; in words
  effect on respiratory minute volume: only a very small increase in minute volume
[6]; upper level of therapeutically effective neuroleptic dosages, in words
  effect on mean arterial blood pressure: minor diminution of blood pressure
